Reference: ChEMBL document CHEMBL1201862, “PubChem BioAssay data set” (2004)
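Dose response: 5 concentrations. Exposure: 48 h. Format: 96-well plates. Endpoint: linear interpolation; highest concentration if not reached. Here, GI50 denotes the concentration required for 50% inhibition of growth.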 Activity calls are given as the source filed them. Cut-off read from the data, not from the text of the source: active = GI50 up to about 1.1 µM and inactive = higher.

Key:
Test in all cases: growth of human tumour cells (NCI), 48 h
[1] = tested on: IGROV-1
[2] = tested on: 786-0
[3] = tested on: OVCAR-4
[4] = tested on: SK-MEL-28
[5] = tested on: HOP-62
[6] = tested on: HOP-92
[7] = tested on: Malme-3M
[8] = tested on: UO-31
[9] = tested on: TK-10
[10] = tested on: COLO 205
[11] = tested on: RPMI-8226
[12] = tested on: NCI-H522
[13] = tested on: HL-60
[14] = tested on: U-251
[15] = tested on: SF-295
[16] = tested on: RXF 393
[17] = tested on: SR

CCN1CCC(O)(c2ccc(Cl)c(Cl)c2)C(C(=O)c2ccc(Cl)c(Cl)c2)C1 (stereo not drawn)
GI50 [1]: 20.6 µM (inactive)
GI50 [2]: 15.4 µM (inactive)
GI50 [3]: 18.3 µM (inactive)
GI50 [4]: 18.2 µM (inactive)
GI50 [5]: 18.3 µM (inactive)
GI50 [6]: 14.5 µM (inactive)
GI50 [7]: 18.2 µM (inactive)
GI50 [8]: 17.3 µM (inactive)
GI50 [9]: 16.5 µM (inactive)
GI50 [10]: 16.9 µM (inactive)
GI50 [11]: 1.65 µM (inactive)
GI50 [12]: 3.71 µM (inactive)
GI50 [13]: 15.2 µM (inactive)
GI50 [14]: 18 µM (inactive)
GI50 [15]: 17.6 µM (inactive)

C=CCC(O)c1cc(OC)ccc1OC (stereo not drawn)
GI50 [1]: > 100 µM (inactive)
GI50 [2]: > 100 µM (inactive)
GI50 [3]: > 100 µM (inactive)
GI50 [4]: > 100 µM (inactive)
GI50 [16]: > 100 µM (inactive)
GI50 [5]: > 100 µM (inactive)
GI50 [6]: > 100 µM (inactive)
GI50 [7]: > 100 µM (inactive)
GI50 [8]: > 100 µM (inactive)
GI50 [9]: > 100 µM (inactive)
GI50 [10]: > 100 µM (inactive)
GI50 [11]: > 100 µM (inactive)
GI50 [12]: > 100 µM (inactive)
GI50 [13]: > 100 µM (inactive)
GI50 [14]: > 100 µM (inactive)
GI50 [15]: > 100 µM (inactive)

C=CC/N=C1\NC(=O)C(CC(=O)Nc2ccc(C)cc2)S1 (stereo not drawn)
GI50 [1]: > 100 µM (inactive)
GI50 [2]: > 100 µM (inactive)
GI50 [3]: > 100 µM (inactive)
GI50 [4]: > 100 µM (inactive)
GI50 [16]: > 100 µM (inactive)
GI50 [5]: > 100 µM (inactive)
GI50 [7]: > 100 µM (inactive)
GI50 [8]: > 100 µM (inactive)
GI50 [9]: > 100 µM (inactive)
GI50 [10]: > 100 µM (inactive)
GI50 [11]: > 100 µM (inactive)
GI50 [12]: > 100 µM (inactive)
GI50 [13]: > 100 µM (inactive)
GI50 [14]: > 100 µM (inactive)
GI50 [15]: > 100 µM (inactive)

N#C/C(=C1\OC(=N)C(c2ccc(Cl)cc2Cl)C1=O)c1ccc(Cl)cc1Cl (stereo not drawn)
GI50 [1]: > 100 µM (inactive)
GI50 [2]: > 100 µM (inactive)
GI50 [3]: > 100 µM (inactive)
GI50 [4]: > 100 µM (inactive)
GI50 [16]: > 100 µM (inactive)
GI50 [6]: 80.5 µM (inactive)
GI50 [7]: > 100 µM (inactive)
GI50 [8]: 56.6 µM (inactive)
GI50 [9]: > 100 µM (inactive)
GI50 [10]: > 100 µM (inactive)
GI50 [11]: > 100 µM (inactive)
GI50 [12]: > 100 µM (inactive)
GI50 [13]: > 100 µM (inactive)
GI50 [15]: > 100 µM (inactive)

CCc1ccc(Nc2ccc([N+](=O)[O-])cc2[N+](=O)[O-])cc1
GI50 [1]: 97.3 µM (inactive)
GI50 [2]: > 100 µM (inactive)
GI50 [3]: 34.5 µM (inactive)
GI50 [4]: > 100 µM (inactive)
GI50 [16]: 71.4 µM (inactive)
GI50 [5]: > 100 µM (inactive)
GI50 [7]: > 100 µM (inactive)
GI50 [8]: 26.2 µM (inactive)
GI50 [9]: 73.8 µM (inactive)
GI50 [11]: 39.1 µM (inactive)
GI50 [13]: 26.8 µM (inactive)
GI50 [14]: 77.1 µM (inactive)
GI50 [15]: 89.7 µM (inactive)

C[C@]12CC(C#N)C(=O)C(O)=C1CC[C@@H]1C2CC[C@@]2(C)C1CC[C@@H]2O (stereo partly drawn)
GI50 [1]: 12.2 µM (inactive)
GI50 [2]: 22.9 µM (inactive)
GI50 [3]: 48.5 µM (inactive)
GI50 [4]: 40.9 µM (inactive)
GI50 [16]: 19.1 µM (inactive)
GI50 [5]: 80.4 µM (inactive)
GI50 [6]: 10.7 µM (inactive)
GI50 [7]: 31.1 µM (inactive)
GI50 [8]: 10.1 µM (inactive)
GI50 [9]: 27.1 µM (inactive)
GI50 [10]: 48.5 µM (inactive)
GI50 [11]: 7 µM (inactive)
GI50 [13]: 13.8 µM (inactive)
GI50 [14]: > 100 µM (inactive)
GI50 [15]: > 100 µM (inactive)

COc1ccc(C2=NN(c3ccccc3)C[N+](c3ccc(C)cc3)=N2)cc1
GI50 [1]: 39.3 µM (inactive)
GI50 [17]: 34 µM (inactive)
GI50 [2]: 43.6 µM (inactive)
GI50 [3]: 13.2 µM (inactive)
GI50 [4]: 58.9 µM (inactive)
GI50 [16]: 19.5 µM (inactive)
GI50 [5]: > 100 µM (inactive)
GI50 [7]: 48.3 µM (inactive)
GI50 [8]: 38.3 µM (inactive)
GI50 [9]: > 100 µM (inactive)
GI50 [10]: 31.3 µM (inactive)
GI50 [11]: 26.9 µM (inactive)
GI50 [12]: 12.7 µM (inactive)
GI50 [13]: 27.7 µM (inactive)
GI50 [14]: 20.6 µM (inactive)
GI50 [15]: > 100 µM (inactive)

CC(=O)O[C@H]1CCC2[C@@H]3CCC4c5nonc5CC[C@]4(C)C3CC[C@@]21C (stereo partly drawn)
GI50 [1]: > 10 µM (inactive)
GI50 [2]: > 10 µM (inactive)
GI50 [3]: > 10 µM (inactive)
GI50 [4]: > 10 µM (inactive)
GI50 [16]: > 10 µM (inactive)
GI50 [5]: > 10 µM (inactive)
GI50 [6]: > 10 µM (inactive)
GI50 [7]: > 10 µM (inactive)
GI50 [8]: > 10 µM (inactive)
GI50 [9]: > 10 µM (inactive)
GI50 [10]: > 10 µM (inactive)
GI50 [12]: > 10 µM (inactive)
GI50 [13]: > 10 µM (inactive)
GI50 [14]: > 10 µM (inactive)
GI50 [15]: > 10 µM (inactive)

N#CC(C(=O)/C(=N/N)C(C#N)c1ccccc1)c1ccccc1 (stereo not drawn)
GI50 [1]: > 100 µM (inactive)
GI50 [2]: > 100 µM (inactive)
GI50 [3]: > 100 µM (inactive)
GI50 [4]: > 100 µM (inactive)
GI50 [16]: > 100 µM (inactive)
GI50 [5]: > 100 µM (inactive)
GI50 [6]: > 100 µM (inactive)
GI50 [7]: > 100 µM (inactive)
GI50 [8]: > 100 µM (inactive)
GI50 [9]: > 100 µM (inactive)
GI50 [11]: > 100 µM (inactive)
GI50 [12]: > 100 µM (inactive)
GI50 [13]: > 100 µM (inactive)
GI50 [14]: > 100 µM (inactive)
GI50 [15]: > 100 µM (inactive)

CC12CCC(=O)N1c1cccnc1N2 (stereo not drawn)
GI50 [1]: > 100 µM (inactive)
GI50 [2]: > 100 µM (inactive)
GI50 [3]: > 100 µM (inactive)
GI50 [4]: > 100 µM (inactive)
GI50 [16]: > 100 µM (inactive)
GI50 [5]: > 100 µM (inactive)
GI50 [6]: > 100 µM (inactive)
GI50 [7]: > 100 µM (inactive)
GI50 [8]: > 100 µM (inactive)
GI50 [9]: > 100 µM (inactive)
GI50 [10]: > 100 µM (inactive)
GI50 [11]: > 100 µM (inactive)
GI50 [12]: > 100 µM (inactive)
GI50 [13]: > 100 µM (inactive)
GI50 [14]: > 100 µM (inactive)
GI50 [15]: > 100 µM (inactive)

COC1C(OC(=O)c2ccc(C)[nH]2)C(O)C(Oc2ccc3c(O)c(NC(=O)c4c[nH]c(C(=O)Nc5c(O)c6ccc(OC7OC(C)(C)C(OC)C(OC(=O)c8ccc(C)[nH]8)C7O)c(C)c6oc5=O)c4C)c(=O)oc3c2C)OC1(C)C (stereo not drawn)
GI50 [1]: 1.3 µM (inactive)
GI50 [2]: 2.1 µM (inactive)
GI50 [3]: 2.05 µM (inactive)
GI50 [4]: 0.475 µM (active)
GI50 [16]: 0.794 µM (active)
GI50 [6]: 2.44 µM (inactive)
GI50 [7]: 2.09 µM (inactive)
GI50 [8]: 1.45 µM (inactive)
GI50 [9]: 4.86 µM (inactive)
GI50 [10]: 1.87 µM (inactive)
GI50 [11]: 1.53 µM (inactive)
GI50 [13]: 1.83 µM (inactive)
GI50 [14]: 0.597 µM (active)
GI50 [15]: 4.01 µM (inactive)

O=C1c2ccccc2C(=O)C2C3c4ccccc4C(c4ccccc43)C12 (stereo not drawn)
GI50 [1]: 22.9 µM (inactive)
GI50 [17]: 14.4 µM (inactive)
GI50 [2]: 5.45 µM (inactive)
GI50 [4]: 29.8 µM (inactive)
GI50 [16]: 7.8 µM (inactive)
GI50 [5]: 30 µM (inactive)
GI50 [7]: 13.1 µM (inactive)
GI50 [8]: 21.8 µM (inactive)
GI50 [9]: 24.5 µM (inactive)
GI50 [10]: 45 µM (inactive)
GI50 [11]: 10.9 µM (inactive)
GI50 [12]: 31.3 µM (inactive)
GI50 [14]: 31 µM (inactive)
GI50 [15]: 12.8 µM (inactive)

COC(=O)c1cc2cc(OC)c(OC)cc2cc(C(=O)OC)c1=O
GI50 [1]: > 100 µM (inactive)
GI50 [2]: > 100 µM (inactive)
GI50 [3]: > 100 µM (inactive)
GI50 [16]: > 100 µM (inactive)
GI50 [5]: > 100 µM (inactive)
GI50 [6]: > 100 µM (inactive)
GI50 [7]: > 100 µM (inactive)
GI50 [8]: > 100 µM (inactive)
GI50 [9]: > 100 µM (inactive)
GI50 [10]: > 100 µM (inactive)
GI50 [11]: > 100 µM (inactive)
GI50 [12]: > 100 µM (inactive)
GI50 [13]: > 100 µM (inactive)
GI50 [14]: > 100 µM (inactive)
GI50 [15]: > 100 µM (inactive)
